Reference: patent US20030134859A1 (SANKYO COMPANY, LIMITED, priority 2000, published 2003)

These molecules were tested on Rat white adipocytes (assay: Inhibition of the differentiation of adipocytes (Oil Red O)). Settings: 100 nM test compound; 5 days; Oil Red O ABS550; control = 100%, blank = 0%; Table 3.
Format: cell-based
Outline: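 Rat white preadipocytes, 5,000 cells/well, given differentiation medium with compound at 100 nM final (0.1% DMSO) for 5 days at 37 °C. Lipid stained with Oil Red O, eluted in DMSO, read at 550 nm; differentiation % relative to DMSO control (100%) and blank (0%).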
With `O=C(Nc1cccc(C(=O)N2CCCC2)c1)c1cc([N+](=O)[O-])ccc1Cl` [Example 31] the “Rate of Differentiation (%)” value was 77.2%.
For `Cl.O=C(Nc1ccncc1)c1cc([N+](=O)[O-])ccc1Cl` [Example 146, N-(Pyridin-4-yl)-(2-chloro-5-nitrophenyl)carboxamide Hydrochloride], the “Rate of Differentiation (%)” value was 78.2%.
In the case of “N-[4-(4-Methylbenzoylamino)phenyl]phenyl]-(2-chloro-5-nitrophenyl)carboxamide [Example 122]”, the “Rate of Differentiation (%)” value is reported as 78.4%.
In the case of “N-[4-[4-(Pyrrolidin-1-ylamino)phenyl]phenyl]-(2-chloro-5-nitrophenyl)carboxamide [Example 171]”, the “Rate of Differentiation (%)” value is reported as 43.0%.

Same assay, conditions: Rattus norvegicus, Adipocyte, 120 h, 100 nM test compound; 5 days; Oil Red O ABS550; control = 100%, blank = 0%; Table 3; read-out: Rate of Differentiation (%)
With `N#Cc1cccc(NC(=O)c2cc([N+](=O)[O-])ccc2Cl)c1` [Example 21, N-(3-Cyanophenyl)-(2-chloro-5-nitrophenyl)carboxamide] the activity at 0.1 µM was 63%.
Molecule `O=C(Nc1cccc([N+](=O)[O-])c1)c1cc([N+](=O)[O-])ccc1Cl` [Example 25, N-(3-Nitrophenyl)-(2-chloro-5-nitrophenyl)carboxamide] has an activity at 0.1 µM of 84%.
With `O=C(Nc1ccncc1)c1cc([N+](=O)[O-])ccc1Cl` [Example 49, N-(4-Pyridyl)-(2-chloro-5-nitrophenyl)carboxamide] the activity at 0.1 µM was 71%.
With `O=C(Nc1ccc(NC(=O)c2cc([N+](=O)[O-])ccc2Cl)nc1)c1cc([N+](=O)[O-])ccc1Cl` [Example 64, 2,5-bis(2-Chloro-5-nitrobenzoylamino)pyridine] the activity at 0.1 µM was 85.5%.
Work on `O=C(Nc1nc2cc(Cl)ccc2o1)c1cc([N+](=O)[O-])ccc1Cl` [Example 75, N-(5-Chlorobenzoxazol-2-yl)-(2-chloro-5-nitrophenyl)carboxamide] yielded an activity at 0.1 µM of 88.6%.
Molecule `O=C(Nc1ncc(Br)cn1)c1cc([N+](=O)[O-])ccc1Cl` [Example 77, N-(5-Bromopyrimidin-2-yl)-(2-chloro-5-nitrophenyl)carboxamide] has an activity at 0.1 µM of 68%.
In the case of `O=C(Nc1ccc(-c2ccc(NC(=O)c3cc([N+](=O)[O-])ccc3Cl)cc2)cc1)c1ccccc1` [Example 120, N-[4-(4-Benzoylaminophenyl)phenyl]-(2-chloro-5-nitrophenyl)carboxamide], the activity at 0.1 µM is reported as 79.8%.
Work on `O=C(Nc1ccc(-c2ccc(NC(=O)c3cc([N+](=O)[O-])ccc3Cl)cc2)cc1)c1cccnc1` [Example 124, N-[4-[4-(Pyridin-3-ylcarbonylamino)phenyl]phenyl]-(2-chloro-5-nitrophenyl)carboxamide] yielded an activity at 0.1 µM of 84.2%.
With `O=C(Nc1ccc(-c2ccc(NC(=O)c3cc([N+](=O)[O-])ccc3Cl)cc2)cc1)c1ccncc1` [Example 126, N-[4-[4-(Pyridin-4-ylcarbonylamino)phenyl]phenyl]-(2-chloro-5-nitrophenyl)carboxamide] the activity at 0.1 µM was 75.2%.
With `CCS(=O)(=O)Nc1ccc(-c2ccc(NC(=O)c3cc([N+](=O)[O-])ccc3Cl)cc2)cc1` [Example 130, N-[4-(4-Ethanesulfonylaminophenyl)phenyl]-(2-chloro-5-nitrophenyl)carboxamide] the activity at 0.1 µM was 64%.
For `CC(=O)c1ccc(NC(=O)c2cc([N+](=O)[O-])ccc2Cl)cc1` [Example 155, N-(4-Acetylphenyl)-(2-chloro-5-nitrophenyl)carboxamide], the activity at 0.1 µM was 82.7%.
`O=C(Nc1ccc(-n2ccnc2)cc1)c1cc([N+](=O)[O-])ccc1Cl` [Example 174, N-[4-(Imidazol-1-yl)phenyl]-(2-chloro-5-nitrophenyl)carboxamide] gave an activity at 0.1 µM of 68.8%.
In the case of `O=C(Nc1ccc(-c2ccc(N3CCCCC3)cc2)cc1)c1cc([N+](=O)[O-])ccc1Cl` [Example 177, N-[4-[4-(Piperidin-1-yl)phenyl]phenyl]-(2-chloro-5-nitrophenyl)carboxamide], the activity at 0.1 µM is reported as 14%.
